Measurements published in paper PMC6152127, “Facile Synthesis of Novel Coumarin Derivatives, Antimicrobial Analysis, Enzyme Assay, Docking Study, ADMET Prediction and Toxicity Study” (Molecules : A Journal of Synthetic Chemistry and Natural …, 2017).
In brackets after ≈: the same amount, converted by molar mass.

Columns and labels:
[1] = test system: Escherichia coli (NCIM-2256); assay: In vitro antibacterial activity, MIC; type: cell-based; conditions: average of three readings; for MIC: Escherichia coli, NCIM2256
Procedure: (§1) The newly synthesized compounds 4a–o were screened for their in vitro antibacterial activity against the three different bacterial strains. Minimum inhibitory concentration (MIC) values for antibacterial activity were determined by standard agar method using Ampicillin as standard drug. Dimethyl sulfoxide (DMSO) was used as solvent control. […] Compound 4e bearing a 2,4-difluoro group on the phenyl ring was 48 µg/mL for E. coli, 50 µg/mL for B. subtilis and 52 µg/mL for S. aureus.
(§2) All the synthesized compounds were screened for their in vitro antifungal and antibacterial activity. The antibacterial activity was evaluated against three human pathogenic bacterial strains: Escherichia coli (NCIM-2256), Bacillus subtilis (NCIM-2063) and Staphylococcus aureus (NCIM-2901). The antifungal activity was evaluated against seven human pathogenic fungal strains: Candida albicans (NCIM-3471), Candida glabrata (NCYC-388), Fusarium oxysporum (NCIM-1332), Aspergillus fumigates (NCIM-902), Aspergillus flavus (NCIM-539), Aspergillus niger (NCIM-1196) and Cryptococcus neoformans (NCIM-576), which are often encountered clinically. Miconazole was used as standard drug. Minimum inhibitory concentration (MIC) values were determined as per CLSI guidelines. Dimethyl sulfoxide (DMSO) was used as solvent control.
(§3) All the synthesized compounds 4a–o were screened for their in vitro antibacterial activity. Minimum inhibitory concentration (MIC) values were determined using method recommended by National Committee for Clinical Laboratory Standards (NCCLS). In vitro antibacterial activities of the synthesized compounds 4a–o were tested in Nutrient Broth (NB) for bacteria by the two fold serial dilution method. Seeded broth (broth containing microbial spores) was prepared in NB from 24 h old bacterial cultures on nutrient agar (Hi-media) at 37± 1 °C. The bacterial suspension was adjusted with sterile saline to a concentration of 1× 10^−4–10^−5 C.F.U. The synthesized compounds and standard drug Ampicillin were prepared by two fold serial dilutions to obtain the required concentrations of 400, 200, 100, 50, 25, 12.5, 6.25 and 3.13 μg/mL. The tubes were incubated in BOD incubators at 37± 1 °C for bacteria. The MICs were recorded by visual observations after 24 h (for bacteria) of incubation.

[2] = test system: Staphylococcus aureus (NCIM-2901); assay: In vitro antibacterial activity, MIC; type: cell-based; conditions: average of three readings; for MIC: Staphylococcus aureus, NCIM2901
Procedure: as §1, §2, §3

[3] = test system: Bacillus subtilis (NCIM-2063); assay: In vitro antibacterial activity, MIC; type: cell-based; conditions: average of three readings; for MIC: Bacillus subtilis, NCIM2063
Procedure: as §1, §2, §3

[4] = test system: Aspergillus flavus (NCIM-539); assay: In vitro antifungal activity, MIC, agar method (CLSI); type: cell-based; conditions: NCIM539, average of three readings
Procedure: (§4) The newly synthesized 3-((dicyclohexylamino)(substituted phenyl/heteryl)methyl)-4-hydroxy-2H-chromen-2-one derivatives 4a–o were screened for their in vitro antifungal activity against different yeast and filamentous fungal pathogens. […] Dimethyl sulfoxide (DMSO) was used as solvent control.
as §2, with “Miconazole was used as standard drug.” left out
(§5) Antifungal activity was determined as per CLSI (formerly, NCCLS) guidelines. […] The medium yeast nitrogen base was dissolved in phosphate buffer pH 7 and it was autoclaved at 110 °C for 10 min. With each set a growth control without the antifungal agent and solvent control DMSO were included. The fungal strains were freshly sub cultured on to Sabouraud dextrose agar (SDA) and incubated at 25 °C for 72 h. The fungal cells were suspended in sterile distilled water and diluted to get 10^5 cells/mL. Ten μL of the standardized suspension was inoculated onto the control plates and the media incorporated with the antifungal agents. The inoculated plates were incubated at 25 °C for 48 h. The readings were taken at the end of 48 h and 72 h. The MIC was the lowest concentration of drug preventing growth of macroscopically visible colonies on drug containing plates when there was visible growth on the drug free control plates.

[5] = test system: Candida glabrata (NCYC-388); assay: as above; type: cell-based; conditions: Nakaseomyces glabratus; average of three readings
Procedure: as §4
as §2, with “Miconazole was used as standard drug.” left out
as §5

[6] = test system: Aspergillus fumigates (NCIM-902); assay: as above; type: cell-based; conditions: NCIM902, average of three readings
Procedure: as §4
as §2, with “Miconazole was used as standard drug.” left out
as §5

[7] = test system: Candida albicans (NCIM-3471); assay: as above; type: cell-based; conditions: NCIM3471, average of three readings
Procedure: as §4
as §2, with “Miconazole was used as standard drug.” left out
as §5

[8] = test system: Fusarium oxysporum (NCIM-1332); assay: as above; type: cell-based; conditions: NCIM1332, average of three readings
Procedure: as §4
as §2, with “Miconazole was used as standard drug.” left out
as §5

[9] = test system: Aspergillus niger (NCIM-1196); assay: as above; type: cell-based; conditions: NCIM1196, average of three readings
Procedure: as §4
as §2, with “Miconazole was used as standard drug.” left out
as §5

[10] = test system: Cryptococcus neoformans (NCIM-576); assay: as above; type: cell-based; conditions: NCIM576, average of three readings
Procedure: as §4
as §2, with “Miconazole was used as standard drug.” left out
as §5

| Structure (SMILES) | MIC [1] [µg/mL] | MIC [2] [µg/mL] | MIC [3] [µg/mL] | melting point [°C] | MIC [4] [µg/mL] | MIC [5] [µg/mL] | MIC [6] [µg/mL] | MIC [7] [µg/mL] | MIC [8] [µg/mL] | MIC [9] [µg/mL] | MIC [10] [µg/mL] | MIC Escherichia coli [1] [µg/mL] | MIC Staphylococcus aureus [2] [µg/mL] | MIC Bacillus subtilis [3] [µg/mL] |
| --- | --- | --- | --- | --- | --- | --- | --- | --- | --- | --- | --- | --- | --- | --- |
| CC1(C)S[C@@H]2[C@H](NC(=O)[C@H](N)c3ccccc3)C(=O)N2[C@H]1C(=O)O [Ampicillin, reference compound] | 50 (≈ 143 µM) | 50 (≈ 143 µM) | 50 (≈ 143 µM) |  |  |  |  |  |  |  |  |  |  |  |
| O=c1oc2ccccc2c(O)c1C(c1ccccc1)N(C1CCCCC1)C1CCCCC1 (stereo not drawn) [Compound 4a, 3-((Dicyclohexylamino)(phenyl)methyl)-4-hydroxy-2H-chromen-2-one] | 70 (≈ 162 µM) | 65 (≈ 151 µM) | 68 (≈ 158 µM) | 112 to 114 | 38 (≈ 88 µM) | 58 (≈ 134 µM) | 84 (≈ 195 µM) | 66 (≈ 153 µM) | 55 (≈ 127 µM) | 43 (≈ 99.6 µM) | 54 (≈ 125 µM) |  |  |  |
| O=c1oc2ccccc2c(O)c1C(c1ccc(Cl)cc1)N(C1CCCCC1)C1CCCCC1 (stereo not drawn) [Compound 4b, 3-((4-Chlorophenyl)(dicyclohexylamino)methyl)-4-hydroxy-2H-chromen-2-one] | 52 (≈ 112 µM) | 54 (≈ 116 µM) | 50 (≈ 107 µM) | 120 to 122 | 14 (≈ 30 µM) | 32 (≈ 68.7 µM) | 30 (≈ 64.4 µM) | 30 (≈ 64.4 µM) | 34 (≈ 73 µM) | 15 (≈ 32.2 µM) | 15 (≈ 32.2 µM) |  |  |  |
| O=c1oc2ccccc2c(O)c1C(c1c(Cl)cccc1Cl)N(C1CCCCC1)C1CCCCC1 (stereo not drawn) [Compound 4c, 3-((2,6-Dichlorophenyl)(dicyclohexylamino)methyl)-4-hydroxy-2H-chromen-2-one] | 50 (≈ 99.9 µM) | 50 (≈ 99.9 µM) | 48 (≈ 95.9 µM) | 126 to 128 | 15 (≈ 30 µM) | 28 (≈ 55.9 µM) | 28 (≈ 55.9 µM) | 30 (≈ 59.9 µM) | 35 (≈ 69.9 µM) | 18 (≈ 36 µM) | 14 (≈ 28 µM) | 50 (≈ 99.9 µM) | 50 (≈ 99.9 µM) | 48 (≈ 95.9 µM) |
| O=c1oc2ccccc2c(O)c1C(c1ccc(F)cc1)N(C1CCCCC1)C1CCCCC1 (stereo not drawn) [Compound 4d, 3-((Dicyclohexylamino)(4-fluorophenyl)methyl)-4-hydroxy-2H-chromen-2-one] | 50 (≈ 111 µM) | 50 (≈ 111 µM) | 49 (≈ 109 µM) | 122 to 124 | 15 (≈ 33.4 µM) | 30 (≈ 66.7 µM) | 28 (≈ 62.3 µM) | 28 (≈ 62.3 µM) | 30 (≈ 66.7 µM) | 20 (≈ 44.5 µM) | 18 (≈ 40 µM) |  |  |  |
| COc1ccc(C(c2c(O)c3ccccc3oc2=O)N(C2CCCCC2)C2CCCCC2)cc1 (stereo not drawn) [Compound 4f, 3-((Dicyclohexylamino)(4-methoxyphenyl)methyl)-4-hydroxy-2H-chromen-2-one] | 64 (≈ 139 µM) | 55 (≈ 119 µM) | 58 (≈ 126 µM) | 133 to 135 | 20 (≈ 43.3 µM) | 57 (≈ 123 µM) | 44 (≈ 95.3 µM) | 43 (≈ 93.2 µM) | 39 (≈ 84.5 µM) | 22 (≈ 47.7 µM) | 20 (≈ 43.3 µM) |  |  |  |
| COc1ccc(C(c2c(O)c3ccccc3oc2=O)N(C2CCCCC2)C2CCCCC2)cc1OC (stereo not drawn) [Compound 4g, 3-((Dicyclohexylamino)(3,4-dimethoxyphenyl)methyl)-4-hydroxy-2H-chromen-2-one] | 62 (≈ 126 µM) | 62 (≈ 126 µM) | 60 (≈ 122 µM) | 138 to 140 | 24 (≈ 48.8 µM) | 57 (≈ 116 µM) | 52 (≈ 106 µM) | 50 (≈ 102 µM) | 35 (≈ 71.2 µM) | 20 (≈ 40.7 µM) | 26 (≈ 52.9 µM) |  |  |  |
